Data as given in PubChem BioAssay (NCI).
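Test compounds were applied to cells in 96-well plates for 48 hours at 5 doses. GI50 marks 50% less growth. At the TGI there is no net growth.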 Where a SMILES comes first, the peptide text is derived from it.

How the values were obtained:
Test in all cases: DTP human tumour cell line panel, 48 h
A498 renal = tested on: A498 renal
A549 NSCLC = tested on: A549 NSCLC
DMS 114 small cell lung = tested on: DMS 114 small cell lung
DMS 273 small cell lung = tested on: DMS 273 small cell lung
EKVX NSCLC = tested on: EKVX NSCLC
HOP-62 NSCLC = tested on: HOP-62 NSCLC
HT29 colon = tested on: HT29 colon
IGROV1 ovarian = tested on: IGROV1 ovarian
RPMI-8226 leukemia = tested on: RPMI-8226 leukemia
U251 CNS = tested on: U251 CNS
UO-31 renal = tested on: UO-31 renal

| SMILES | TGI (A498 renal) | TGI (A549 NSCLC) | TGI (DMS 114 small cell lung) | TGI (DMS 273 small cell lung) | TGI (EKVX NSCLC) | TGI (HOP-62 NSCLC) | TGI (HT29 colon) | TGI (IGROV1 ovarian) | TGI (RPMI-8226 leukemia) | TGI (U251 CNS) | TGI (UO-31 renal) | GI50 (A498 renal) | GI50 (A549 NSCLC) | GI50 (EKVX NSCLC) | GI50 (HOP-62 NSCLC) | GI50 (HT29 colon) | GI50 (IGROV1 ovarian) | GI50 (RPMI-8226 leukemia) | GI50 (U251 CNS) | GI50 (UO-31 renal) |
| --- | --- | --- | --- | --- | --- | --- | --- | --- | --- | --- | --- | --- | --- | --- | --- | --- | --- | --- | --- | --- |
| CN(C)c1nc(N(C)C)nc(N(C)C)n1 | > 150 µM | > 150 µM | > 150 µM | > 147 µM | > 150 µM | > 142 µM | > 150 µM | > 135 µM | > 150 µM | > 150 µM | > 150 µM |  |  |  |  |  |  |  |  |  |
| C=C1C(=O)O[C@@H]2[C@H]3O[C@]3(C)CCC=C(C)CC[C@@H]12 | 13.3 µM | 202 µM | 165 µM | > 60.3 µM | 39.2 µM | 102 µM | 68.8 µM | 52.4 µM | 77.2 µM | 88.6 µM | 91.9 µM |  |  |  |  |  |  |  |  |  |
| CC1NC(=O)CNC(=O)CNC(=O)C(Cc2ccc(O)cc2)NC(=O)C(C(C)C)NC(=O)C(C)NC1=O (stereo not drawn) (cyclo(GGAAVY); configuration not given here) | > 100 µM | > 100 µM | > 100 µM | > 100 µM | > 100 µM | > 100 µM | > 100 µM | > 100 µM | > 100 µM | > 100 µM | > 100 µM | 75.6 µM |  |  |  |  |  |  |  |  |
| CC1=C2C(O)C(C(C)C(=O)NCC(C)C)CCC2(C)C=CC1=O (stereo not drawn) | > 100 µM | > 100 µM | > 100 µM | > 100 µM | > 100 µM | > 100 µM | > 100 µM | > 100 µM | > 100 µM | > 100 µM | > 100 µM |  |  |  |  |  |  |  |  |  |
| CCCCCC(CN1CCOCC1)C(=O)/C=C/c1ccccc1 (stereo not drawn) |  | 12 µM | 5.17 µM | 6.1 µM | 22.5 µM | 16.9 µM | 10.3 µM |  | 9.03 µM | 9.19 µM | 20.1 µM |  |  |  |  |  |  |  |  |  |
| O=C1C=CC(=O)c2c1ccc1c3ccccc3n(-c3ccccn3)c21 |  | > 100 µM | 40.2 µM | > 100 µM | 43.4 µM |  | 77.1 µM |  | > 100 µM | > 100 µM | 35.8 µM |  |  |  |  |  |  |  |  |  |
| CCOc1c2ccsc2c(OCC)c2ccsc12 | > 100 µM | > 100 µM |  |  | > 100 µM | > 100 µM | > 36 µM | > 100 µM | > 100 µM | > 100 µM | > 100 µM |  |  |  |  |  |  |  |  |  |
| CCOC(=O)c1cc2cc(N(C(C)=O)C(C)=O)ccc2s1 | 35.1 µM | > 100 µM |  |  | 55.9 µM | > 100 µM | 67.9 µM | > 100 µM | 45.3 µM | 59.6 µM | > 100 µM |  |  |  |  |  |  |  |  |  |
| CN1C2CCC1CC(OC(c1ccccc1)c1ccccc1)C2 (stereo not drawn) | 28.4 µM | 39.7 µM |  |  | 91.2 µM | 43 µM | 23 µM | 38.8 µM | 33.4 µM | 28.9 µM | 40.1 µM |  |  |  |  |  |  |  |  |  |
| CCOP(=O)(OCC)C(NC(=O)OCC(Cl)(Cl)Cl)n1nnc(C(=O)OC)c1C(=O)OC (stereo not drawn) | > 100 µM | > 100 µM |  |  | > 100 µM | > 100 µM | > 100 µM | > 100 µM | > 100 µM | > 100 µM | > 100 µM |  |  |  |  |  |  |  |  |  |
| CCc1ccc(-c2nnc(COc3ccc(-c4nc5ccc(C)cc5[nH]4)cc3OC)o2)cc1 | 4.72 µM | > 100 µM |  |  | > 100 µM | 6.46 µM | > 100 µM | > 100 µM | 5.75 µM | 5.79 µM | 3.17 µM | 1.97 µM | 4.21 µM | 4.14 µM | 2.44 µM | 3.66 µM | 4.94 µM | 2.26 µM | 2.32 µM | 1.63 µM |
| CCOC(=O)C1(C(=O)OCC)C[C@]23OCCC(=O)[C@H]2[C@H]2C(=O)OC(C)(C)O[C@]23C1 | > 100 µM | > 100 µM |  |  | > 100 µM | > 100 µM | > 100 µM | > 100 µM | > 100 µM | > 100 µM | > 100 µM |  |  |  |  |  |  |  |  |  |
| NCc1ccc(-c2ccc(-c3ccc(-c4ccc(CN)s4)s3)s2)s1 | > 100 µM | > 100 µM |  |  | > 100 µM | > 100 µM | > 100 µM | > 100 µM | > 100 µM | > 100 µM | > 100 µM |  |  |  |  |  |  |  |  |  |
| CCOC(=O)CC(=O)NC1CC2CCC1(C)C2(C)C (stereo not drawn) | > 100 µM | > 100 µM |  |  | > 100 µM | > 100 µM | > 100 µM | > 100 µM | > 100 µM | > 100 µM | > 100 µM |  |  |  |  |  |  |  |  |  |
| Cc1ccc(/C=C2\CN(C)CC3=C2OC(N)=C(C#N)C3c2ccc(C)cc2)cc1 (stereo not drawn) | 45.2 µM | 49.4 µM |  |  | 56.5 µM | 52.7 µM | 34.2 µM | 39.4 µM | > 48.7 µM | > 61.1 µM | 53.4 µM |  |  |  |  |  |  |  |  |  |
| C[C@]12CC[C@@H]3c4ccc(O)cc4CC[C@H]3[C@@H]1C/C(=C\c1ccc([N+](=O)[O-])cc1)C2=O | > 100 µM | > 100 µM |  |  | > 100 µM | > 100 µM | 37.2 µM | > 100 µM | > 100 µM | > 100 µM | > 100 µM |  |  |  |  |  |  |  |  |  |
| C=C(O)c1ccccc1C#Cc1ccccc1C(=O)OC | > 10 µM | > 10 µM |  |  | > 10 µM | > 10 µM | > 10 µM | > 10 µM | > 10 µM | > 10 µM | > 10 µM |  |  |  |  |  |  |  |  |  |
| CC(=O)ON(OC(C)=O)c1ccc(C)cc1 | > 100 µM | > 100 µM |  |  | > 100 µM | > 100 µM | > 100 µM | > 100 µM | > 100 µM | > 100 µM | > 100 µM |  |  |  |  |  |  |  |  |  |
| Cn1c(=O)oc2cc(C(=O)CSC(=S)N3CCCCCC3)ccc21 | > 100 µM | > 100 µM |  |  | > 100 µM | > 100 µM | 36.7 µM | > 100 µM | > 100 µM | > 100 µM | > 100 µM |  |  |  |  |  |  |  |  |  |
| CC(=O)N=C(N=Nc1c(O)[nH]c2ccc(C)cc12)NC(C)=O | > 100 µM | > 100 µM |  |  | > 100 µM | > 100 µM | > 100 µM | > 100 µM | > 100 µM | > 100 µM | > 100 µM |  |  |  |  |  |  |  |  |  |
| CCOC(=O)/C(C#N)=C/c1ccc2c(-c3c(OCC)ccc4cc(/C=C(\C#N)C(=O)OCC)ccc34)c(OCC)ccc2c1 | > 100 µM | > 100 µM |  |  | > 100 µM | > 100 µM | > 100 µM | > 100 µM | > 100 µM | > 100 µM | > 100 µM |  |  |  |  |  |  |  |  |  |
| Cc1cc(-c2ccc(C(=O)O)[nH]2)on1 | > 100 µM | > 100 µM |  |  | > 100 µM | > 100 µM | > 100 µM | > 100 µM | > 100 µM | > 100 µM | > 100 µM |  |  |  |  |  |  |  |  |  |
| CCCC1NC(=O)C(CC(C)C)NC(=O)c2cccc(n2)C(=O)NC(CC(C)C)C(=O)NC(CCC)C(=O)NC(C(=O)OC)CCCCNC1=O (stereo not drawn) | > 100 µM | > 100 µM |  |  | 90.9 µM | > 100 µM | 94.5 µM | > 100 µM | 32 µM | > 100 µM | > 100 µM |  |  |  |  |  |  |  |  |  |
| CC/C(=N\NC(=O)c1cccnc1)c1ccc2c(c1)OCCO2 | > 100 µM | > 100 µM |  |  | > 100 µM | > 100 µM | > 100 µM | > 100 µM | > 100 µM | > 100 µM | > 100 µM |  |  |  |  |  |  |  |  |  |
